According to patent publication US7612211B2, “Benzimidazole TRPV1 inhibitors” (Janssen Pharmaceutica N.V., priority 2006, dated 2009):

Biological target: T1, hTRPV1 (Homo sapiens, UniProt Q8NER1)
T1 construct: expressed in transfected cells; host or cells: HEK293
Test: Human TRPV1 (hTRPV1) functional assay, FLIPR intracellular Ca2+, capsaicin challenge
Assay type: cell-based
Conditions: HEK293 cells expressing hTRPV1, capsaicin 0.030 μM challenge; for IC50: derived from a variety of test concentrations, read-out: IC50 value (symbol c); for inhibition at 0.2 µM: test concentration of 0.2 μm, read-out: percent inhibition (symbol b); for inhibition at 0.5 µM: test concentration of 0.5 μm, read-out: percent inhibition (symbol a)
Procedure: The functional activity of the test compounds was determined by measuring changes in intracellular calcium concentration using a Ca^++-sensitive fluorescent dye and FLIPR™ technology. Increases in Ca^++ concentration were readily detected upon challenge with capsaicin.
HEK293 cells expressing hTRPV1 were grown on poly-D-lysine coated 384 well black-walled plates (BD 354663) and 1 day later loaded with Calcium 3 Dye for 35 min at 37° C., 5% CO2 and then for 25 min at room temperature, and subsequently tested for agonist-induced increases in intracellular Ca^2+ levels using FLIPR™ technology. Cells were challenged with test compounds (at varying concentrations) and intracellular Ca^2+ was measured for 5 min prior to the addition of capsaicin to all wells to achieve a final concentration of 0.030 μM eliciting ˜80% maximal response.
EC50 or IC50 values were determined from concentration-response studies, which were generated using the average of quadruplicate wells for each data point. The symbol “a” represents percent inhibition obtained at a test concentration of 0.5 μm; the symbol “b” represents percent inhibition obtained at a test concentration of 0.2 μm; the symbol “c” represents an IC50 value (nM) derived from a variety of test concentrations. The term “NA” means that the result is not applicable for a particular compound.

T1 sequence (Q8NER1 whole entry): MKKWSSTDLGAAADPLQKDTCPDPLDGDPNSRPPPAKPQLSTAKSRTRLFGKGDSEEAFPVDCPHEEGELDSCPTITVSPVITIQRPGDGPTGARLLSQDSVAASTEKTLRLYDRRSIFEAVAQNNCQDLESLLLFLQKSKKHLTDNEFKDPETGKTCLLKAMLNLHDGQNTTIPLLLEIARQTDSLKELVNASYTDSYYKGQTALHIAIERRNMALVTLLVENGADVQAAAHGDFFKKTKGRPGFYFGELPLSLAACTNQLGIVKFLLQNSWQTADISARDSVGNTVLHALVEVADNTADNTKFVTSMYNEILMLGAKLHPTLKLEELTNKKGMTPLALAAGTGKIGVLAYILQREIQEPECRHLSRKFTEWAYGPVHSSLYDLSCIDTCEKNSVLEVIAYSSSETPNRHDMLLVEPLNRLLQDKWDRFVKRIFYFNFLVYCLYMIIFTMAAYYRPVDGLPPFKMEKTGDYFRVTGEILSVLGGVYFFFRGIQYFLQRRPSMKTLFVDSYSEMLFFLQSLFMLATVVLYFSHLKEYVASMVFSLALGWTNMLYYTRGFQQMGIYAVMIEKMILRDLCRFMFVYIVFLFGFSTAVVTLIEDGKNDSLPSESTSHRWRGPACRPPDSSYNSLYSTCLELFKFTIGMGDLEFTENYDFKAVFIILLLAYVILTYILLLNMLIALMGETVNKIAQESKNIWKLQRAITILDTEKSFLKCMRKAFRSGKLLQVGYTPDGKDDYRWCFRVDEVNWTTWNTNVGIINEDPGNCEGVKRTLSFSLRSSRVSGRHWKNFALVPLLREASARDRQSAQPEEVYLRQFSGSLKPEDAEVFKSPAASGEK

IC50 [µM]	inhibition at 0.2 µM [%]	inhibition at 0.5 µM [%]	SMILES
0.008	97	–	O=S(=O)(CCO)c1ccccc1-c1ccc2[nH]c(COc3ccc(C(F)(F)F)cc3)nc2c1 [Cpd 142, 2-{2-[2-(4-trifluoromethyl-phenoxymethyl)-1H-benzoimidazol-5-yl]-benzenesulfonyl}-ethanol]
0.156	–	92	CC(C)(O)c1ccccc1-c1ccc2[nH]c(COc3cccc(C(F)(F)F)c3)nc2c1 [Cpd 24, 2-{2-[2-(3-trifluoromethyl-phenoxymethyl)-1H-benzoimidazol-5-yl]-phenyl}-propan-2-ol]
–	–	42	CC(=O)Nc1ccccc1-c1ccc2[nH]c(COc3ccc(C(F)(F)F)cc3)nc2c1 [Cpd 113, N-{2-[2-(4-trifluoromethyl-phenoxymethyl)-1H-benzoimidazol-5-yl]-phenyl}-acetamide]
0.007	99	–	CS(=O)(=O)c1ccccc1-c1ccc2[nH]c(COc3ccc(SC(F)(F)F)cc3)nc2c1 [Cpd 82, 5-(2-methanesulfonyl-phenyl)-2-(4-trifluoromethanesulfide-phenoxymethyl)-1H-benzoimidazole]
0.013	–	–	CC(O)c1ccccc1-c1ccc2[nH]c(COc3ccc(C(F)(F)F)cc3)nc2c1 (stereo not shown) [Cpd 143, 1-{2-[2-(4-trifluoromethyl-phenoxymethyl)-1H-benzoimidazol-5-yl]-phenyl}-ethanol]
0.025	–	–	NS(=O)(=O)c1ccccc1-c1ccc2[nH]c(COc3cccc(OC(F)(F)F)c3)nc2c1 [Cpd 15, 2-[2-(3-trifluoromethoxy-phenoxymethyl)-1H-benzoimidazol-5-yl]-benzenesulfonamide]
0.003	98	–	CC(C)(C)c1ccc(OCc2nc3cc(-c4ccccc4S(C)(=O)=O)ccc3[nH]2)cc1 [Cpd 78, 2-(4-tert-butyl-phenoxymethyl)-5-(2-methanesulfonyl-phenyl)-1H-benzoimidazole]
–	–	6	CC(=O)Nc1cccc(-c2ccc3[nH]c(COc4ccc(C(F)(F)F)cc4)nc3c2)c1 [Cpd 114, N-{3-[2-(4-trifluoromethyl-phenoxymethyl)-1H-benzoimidazol-5-yl]-phenyl}-acetamide]
–	–	16	Cc1ccccc1-c1ccc2[nH]c(COc3ccc(C(F)(F)F)cc3)nc2c1 [Cpd 107, 5-o-tolyl-2-(4-trifluoromethyl-phenoxymethyl)-1H-benzoimidazole]
0.022	–	98	NS(=O)(=O)c1ccccc1-c1ccc2[nH]c(COc3ccc(Cl)c(Cl)c3)nc2c1 [Cpd 29, 2-[2-(3,4-dichloro-phenoxymethyl)-1H-benzoimidazol-5-yl]-benzenesulfonamide]
0.0086	–	100	Cn1c(COc2ccc(C(F)(F)F)cc2)nc2cc(-c3ccccc3S(N)(=O)=O)ccc21 [Cpd 40, 2-[1-methyl-2-(4-trifluoromethyl-phenoxymethyl)-1H-benzoimidazol-5-yl]-benzenesulfonamide]
–	51	–	CS(=O)(=O)c1ccccc1-c1ccc2[nH]c(COc3ccc(C#N)cc3)nc2c1 [Cpd 83, 4-[5-(2-methanesulfonyl-phenyl)-1H-benzoimidazol-2-ylmethoxy]-benzonitrile]
0.047	–	100	NS(=O)(=O)c1c(F)cc(F)cc1-c1ccc2[nH]c(COc3ccc(C(F)(F)F)cc3)nc2c1 [Cpd 135, 2,4-difluoro-6-[2-(4-trifluoromethyl-phenoxymethyl)-1H-benzoimidazol-5-yl]-benzenesulfonamide]
0.102	–	87	NS(=O)(=O)c1ccccc1-c1ccc2[nH]c(COc3cccc(Cl)c3)nc2c1 [Cpd 6, 2-[2-(3-chloro-phenoxymethyl)-1H-benzoimidazol-5-yl]-benzenesulfonamide]
0.021	–	99	NS(=O)(=O)c1ccccc1-c1ccc2[nH]c(C(F)(F)Oc3ccc(C(F)(F)F)cc3)nc2c1 [Cpd 139, 2-{2-[difluoro-(4-trifluoromethyl-phenoxy)-methyl]-1H-benzoimidazol-5-yl}-benzenesulfonamide]
–	–	3	Cc1ccc(-c2ccc3[nH]c(COc4ccc(C(F)(F)F)cc4)nc3c2)cc1 [Cpd 109, 5-p-tolyl-2-(4-trifluoromethyl-phenoxymethyl)-1H-benzoimidazole]
0.083	–	99	CN(C)S(=O)(=O)c1ccccc1-c1ccc2[nH]c(C(F)(F)Oc3ccc(C(F)(F)F)cc3)nc2c1 [Cpd 141, 2-{2-[difluoro-(4-trifluoromethyl-phenoxy)-methyl]-1H-benzoimidazol-5-yl}-N,N-dimethyl-benzenesulfonamide]
–	41	–	NS(=O)(=O)c1ccccc1-c1ccc2[nH]c(CNc3ccc(OC(F)(F)F)cc3)nc2c1 [Cpd 48, 2-{2-[(4-trifluoromethoxy-phenylamino)-methyl]-1H-benzoimidazol-5-yl}-benzenesulfonamide]

IC50 [µM]	inhibition at 0.2 µM [%]	inhibition at 0.5 µM [%]	SMILES
0.114	82	–	CC(C)C(O)c1ccccc1-c1ccc2[nH]c(COc3ccc(C(F)(F)F)cc3)nc2c1 (stereo not shown) [Cpd 144, 2-methyl-1-{2-[2-(4-trifluoromethyl-phenoxymethyl)-1H-benzoimidazol-5-yl]-phenyl}-propan-1-ol]
0.106	89	–	CC(=O)c1ccccc1-c1ccc2[nH]c(COc3ccc(C(F)(F)F)cc3)nc2c1 [Cpd 49, 1-{2-[2-(4-trifluoromethyl-phenoxymethyl)-1H-benzoimidazol-5-yl]-phenyl}-ethanone]
–	49	–	CS(=O)(=O)c1ccccc1-c1ccc2[nH]c(COc3cccc(Br)c3)nc2c1 [Cpd 60, 2-(3-bromo-phenoxymethyl)-5-(2-methanesulfonyl-phenyl)-1H-benzoimidazole]
–	–	7	Nc1cccc(-c2ccc3[nH]c(COc4ccc(C(F)(F)F)cc4)nc3c2)c1 [Cpd 123, 3-[2-(4-trifluoromethyl-phenoxymethyl)-1H-benzoimidazol-5-yl]-phenylamine]
0.061	–	–	NS(=O)(=O)c1ccccc1-c1ccc2[nH]c(COc3cccc(C(F)(F)F)c3)nc2c1 [Cpd 13, 2-[2-(3-trifluoromethyl-phenoxymethyl)-1H-benzoimidazol-5-yl]-benzenesulfonamide]
–	–	13	NS(=O)(=O)c1ccccc1-c1ccc2[nH]c(COc3ccncc3)nc2c1 [Cpd 38, 2-[2-(pyridin-4-yloxymethyl)-1H-benzoimidazol-5-yl]-benzenesulfonamide]
–	–	2	OCc1ccc(-c2ccc3[nH]c(COc4ccc(C(F)(F)F)cc4)nc3c2)cc1 [Cpd 118, {4-[2-(4-trifluoromethyl-phenoxymethyl)-1H-benzoimidazol-5-yl]-phenyl}-methanol]
–	–	14	CS(=O)(=O)c1cccc(-c2ccc3[nH]c(COc4ccc(C(F)(F)F)cc4)nc3c2)c1 [Cpd 99, 5-(3-methanesulfonyl-phenyl)-2-(4-trifluoromethyl-phenoxymethyl)-1H-benzoimidazole]
–	–	43	NS(=O)(=O)c1ccccc1-c1ccc2[nH]c(COc3ccccc3F)nc2c1 [Cpd 3, 2-[2-(2-fluoro-phenoxymethyl)-1H-benzoimidazol-5-yl]-benzenesulfonamide]
–	33	–	O=C(CO)c1ccccc1-c1ccc2[nH]c(COc3ccc(C(F)(F)F)cc3)nc2c1 [Cpd 151, 2-hydroxy-1-{2-[2-(4-trifluoromethyl-phenoxymethyl)-1H-benzoimidazol-5-yl]-phenyl}-ethanone]
–	70	–	CS(=O)(=O)c1ccccc1-c1ccc2[nH]c(COc3ccc(F)c(Cl)c3)nc2c1 [Cpd 67, 2-(3-chloro-4-fluoro-phenoxymethyl)-5-(2-methanesulfonyl-phenyl)-1H-benzoimidazole]
–	–	7	NS(=O)(=O)c1ccc(-c2ccc3[nH]c(COc4ccc(C(F)(F)F)cc4)nc3c2)cc1 [Cpd 105, 4-[2-(4-trifluoromethyl-phenoxymethyl)-1H-benzoimidazol-5-yl]-benzenesulfonamide]
0.031	96	–	Cc1ccc(OCc2nc3cc(-c4ccccc4S(C)(=O)=O)ccc3[nH]2)cc1 [Cpd 76, 5-(2-methanesulfonyl-phenyl)-2-p-tolyloxymethyl-1H-benzoimidazole]
–	–	1	CC(O)c1ccc(-c2ccc3[nH]c(COc4ccc(C(F)(F)F)cc4)nc3c2)cc1 (stereo not shown) [Cpd 112, 1-{4-[2-(4-trifluoromethyl-phenoxymethyl)-1H-benzoimidazol-5-yl]-phenyl}-ethanol]
0.0081	–	99	OCc1ccccc1-c1ccc2[nH]c(COc3ccc(C(F)(F)F)cc3)nc2c1 [Cpd 116, {2-[2-(4-trifluoromethyl-phenoxymethyl)-1H-benzoimidazol-5-yl]-phenyl}-methanol]
–	6	–	COc1ccc(OCc2nc3cc(-c4ccccc4S(C)(=O)=O)ccc3[nH]2)cc1 [Cpd 96, 5-(2-methanesulfonyl-phenyl)-2-(4-methoxy-phenoxymethyl)-1H-benzoimidazole]
–	–	18	CC(O)c1cccc(-c2ccc3[nH]c(COc4ccc(C(F)(F)F)cc4)nc3c2)c1 (stereo not shown) [Cpd 111, 1-{3-[2-(4-trifluoromethyl-phenoxymethyl)-1H-benzoimidazol-5-yl]-phenyl}-ethanol]
